Measured values as given in ChEMBL document CHEMBL1201862, “PubChem BioAssay data set” (2004).
Activity calls are given as the source filed them.

Tests used:
[1] = target: Albumin (Bos taurus, UniProt P02769); test: Counterscreen for inhibitors of T-cell receptor (TCR)-CD3 interaction: Fluorescence-based biochemical high throughput dose response assay to identify inhibitors of T-cell receptor (TCR)-CD3 interaction using a TAMRA-labeled BSA probe.; format: functional
[2] = TNFa-induced NF-kB reporter signal decrease – HEK293 LMP1 reporter cells, dry powder, set 2, selectivity assay for EBV LMP1 NF-kB inhibitor project, dose response (AID 624369); format: functional
[3] = inhibitors of EBV LMP1 NF-kappaB signaling – cell-based, luciferase reporter, luminescence, dry powder, set 2, dose response (AID 624376); format: functional
[4] = target: Tyrosine-protein phosphatase non-receptor type 5 (Homo sapiens, UniProt P54829); test: PTPN5 enzyme inhibition – biochemical, fluorescence intensity, uHTS hits, confirmation (AID 602372); format: functional; conditions: read-out: IC50_Mean
Sequence of Tyrosine-protein phosphatase non-receptor type 5 (P54829 whole entry): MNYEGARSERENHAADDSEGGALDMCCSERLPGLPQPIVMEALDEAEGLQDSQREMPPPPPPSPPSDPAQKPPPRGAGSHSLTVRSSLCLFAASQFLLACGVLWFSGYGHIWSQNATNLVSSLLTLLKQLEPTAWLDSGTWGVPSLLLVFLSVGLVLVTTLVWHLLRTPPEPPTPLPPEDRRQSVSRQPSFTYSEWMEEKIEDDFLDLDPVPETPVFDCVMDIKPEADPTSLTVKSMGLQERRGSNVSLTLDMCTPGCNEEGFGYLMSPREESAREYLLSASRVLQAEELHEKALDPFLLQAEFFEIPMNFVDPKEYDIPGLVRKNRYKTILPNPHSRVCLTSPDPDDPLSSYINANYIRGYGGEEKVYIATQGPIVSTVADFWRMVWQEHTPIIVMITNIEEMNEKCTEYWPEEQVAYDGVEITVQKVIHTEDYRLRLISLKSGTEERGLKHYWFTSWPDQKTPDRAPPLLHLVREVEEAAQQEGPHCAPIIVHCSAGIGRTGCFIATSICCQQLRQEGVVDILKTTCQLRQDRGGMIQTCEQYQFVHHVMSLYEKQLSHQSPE

[5] = target: Dual specificity protein phosphatase 3 (Homo sapiens, UniProt P51452); test: VHR phosphatase inhibition, dose response, selectivity assay for STEP inhibitor project, biochemical (AID 602374); format: functional; conditions: read-out: IC50_Mean
Sequence of Dual specificity protein phosphatase 3 (P51452 whole entry, the tested form may be a part): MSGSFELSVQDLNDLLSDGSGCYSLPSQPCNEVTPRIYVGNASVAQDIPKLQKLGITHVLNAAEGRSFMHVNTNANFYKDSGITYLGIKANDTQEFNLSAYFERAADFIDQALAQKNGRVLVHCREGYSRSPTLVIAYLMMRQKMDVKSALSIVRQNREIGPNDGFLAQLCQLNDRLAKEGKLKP

[6] = target: T1, Carboxy-terminal domain RNA polymerase II polypeptide A small phosphatase 1 (Homo sapiens, UniProt Q9GZU7); test: CTDSP1 inhibitors, concentration-response, biochemical, absorbance readout, ultra-high-throughput screen actives (AID 540297); format: functional
T1 sequence (Q9GZU7 whole entry): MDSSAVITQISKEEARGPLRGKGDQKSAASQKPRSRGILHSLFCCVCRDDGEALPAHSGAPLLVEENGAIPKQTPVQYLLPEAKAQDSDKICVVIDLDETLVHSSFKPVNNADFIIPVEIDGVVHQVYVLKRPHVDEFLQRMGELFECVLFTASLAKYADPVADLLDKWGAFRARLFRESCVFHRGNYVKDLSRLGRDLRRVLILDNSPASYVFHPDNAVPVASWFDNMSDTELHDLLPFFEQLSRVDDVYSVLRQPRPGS

[7] = target: Eukaryotic translation initiation factor 4E (Mus musculus, UniProt P63073); test: blockers of eIF4G binding by eIF4E – biochemical, TR-FRET, dose response (AID 855); format: functional;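 note: potency for disrupting eIF4E binding to eIF4GI seen as loss of FRET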
[8] = target: T2, Tyrosine-protein phosphatase non-receptor type 22 (Homo sapiens, UniProt Q9Y2R2); test: lymphoid phosphatase LYP inhibitors – biochemical, selectivity assay for STEP inhibitor project, dose response (AID 624241); format: functional
T2 sequence (Q9Y2R2 whole entry): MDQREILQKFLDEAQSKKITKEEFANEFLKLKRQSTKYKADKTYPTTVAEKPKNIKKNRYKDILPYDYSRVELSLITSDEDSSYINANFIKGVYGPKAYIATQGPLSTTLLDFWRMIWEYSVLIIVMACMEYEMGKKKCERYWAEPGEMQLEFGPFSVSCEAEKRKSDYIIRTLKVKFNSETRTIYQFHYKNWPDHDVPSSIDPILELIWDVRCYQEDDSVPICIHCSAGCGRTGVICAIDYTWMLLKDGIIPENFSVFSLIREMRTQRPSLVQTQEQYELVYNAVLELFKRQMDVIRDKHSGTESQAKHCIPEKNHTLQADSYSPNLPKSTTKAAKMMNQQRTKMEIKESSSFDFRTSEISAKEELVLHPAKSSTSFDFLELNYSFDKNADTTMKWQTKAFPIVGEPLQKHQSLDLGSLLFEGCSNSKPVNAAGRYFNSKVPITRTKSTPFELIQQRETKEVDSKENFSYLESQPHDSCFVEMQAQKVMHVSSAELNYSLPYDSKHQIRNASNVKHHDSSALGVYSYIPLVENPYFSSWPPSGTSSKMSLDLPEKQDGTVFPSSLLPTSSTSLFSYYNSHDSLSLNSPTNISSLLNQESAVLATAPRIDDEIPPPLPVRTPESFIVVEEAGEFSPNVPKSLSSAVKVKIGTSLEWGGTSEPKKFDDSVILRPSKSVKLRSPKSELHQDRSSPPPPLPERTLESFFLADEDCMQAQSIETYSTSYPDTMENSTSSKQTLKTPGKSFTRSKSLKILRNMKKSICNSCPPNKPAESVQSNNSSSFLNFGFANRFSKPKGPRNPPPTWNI

[9] = target: Tyrosine-protein phosphatase non-receptor type 11 (Homo sapiens, UniProt Q06124); test: PTPN11 enzyme inhibitors – biochemical, selectivity assay for STEP inhibitor project, dose response (AID 602367); format: functional; conditions: read-out: IC50_Mean
Sequence of Tyrosine-protein phosphatase non-receptor type 11 (Q06124 whole entry): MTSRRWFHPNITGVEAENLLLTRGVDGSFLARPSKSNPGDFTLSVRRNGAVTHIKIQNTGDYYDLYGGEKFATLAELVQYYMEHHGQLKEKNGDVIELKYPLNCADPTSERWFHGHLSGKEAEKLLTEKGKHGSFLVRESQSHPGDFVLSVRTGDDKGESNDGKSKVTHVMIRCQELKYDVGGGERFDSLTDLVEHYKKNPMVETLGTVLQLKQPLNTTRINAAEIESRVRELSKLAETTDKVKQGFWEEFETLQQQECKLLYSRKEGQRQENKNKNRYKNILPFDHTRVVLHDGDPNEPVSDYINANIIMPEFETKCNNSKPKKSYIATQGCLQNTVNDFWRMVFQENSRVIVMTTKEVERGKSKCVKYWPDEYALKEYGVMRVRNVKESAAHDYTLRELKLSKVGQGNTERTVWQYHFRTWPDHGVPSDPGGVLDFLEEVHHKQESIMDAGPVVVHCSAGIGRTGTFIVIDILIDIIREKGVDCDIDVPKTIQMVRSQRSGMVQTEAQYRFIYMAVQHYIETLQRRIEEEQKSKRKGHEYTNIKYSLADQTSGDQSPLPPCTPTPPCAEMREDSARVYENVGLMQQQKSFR

[10] = HGIII-sPLA2 enzyme inhibition potency – biochemical, QFRET, IC50, dose response (AID 743457);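 note: green fluorescence rise as the enzyme cleaves BODIPY PC-A2 in liposomes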
[11] = tested on: BHK-21; test: viability loss in BHK-21 cells – cell-based, plate reader, cherry-pick samples, cytotoxicity control, dose response (AID 687030); format: functional; conditions: Mesocricetus auratus
[12] = tested on: HeLa; test: viability loss in HeLa cells – cell-based, ATP luminescence, cherry-pick samples, cytotoxicity control, dose response (AID 687004); format: functional; conditions: Homo sapiens
[13] = non-specific 3'UTR reporter inhibition in Clone20-Shn3RL – cell-based, Renilla luciferase, cherry-picked, counter-screen for Shn3 inhibitor project, dose response (AID 624133); format: functional
[14] = target: T3, Fatty acid synthase (Homo sapiens, UniProt P49327); test: inhibition of human FAS-TE enzyme activity – biochemical, kinetic fluorescence intensity, dose response (AID 624326); format: functional;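 note: rate of fluorescence rise from hydrolysis of a fluorogenic O-methyl fluorescein ester substrate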
T3 sequence (P49327 whole entry): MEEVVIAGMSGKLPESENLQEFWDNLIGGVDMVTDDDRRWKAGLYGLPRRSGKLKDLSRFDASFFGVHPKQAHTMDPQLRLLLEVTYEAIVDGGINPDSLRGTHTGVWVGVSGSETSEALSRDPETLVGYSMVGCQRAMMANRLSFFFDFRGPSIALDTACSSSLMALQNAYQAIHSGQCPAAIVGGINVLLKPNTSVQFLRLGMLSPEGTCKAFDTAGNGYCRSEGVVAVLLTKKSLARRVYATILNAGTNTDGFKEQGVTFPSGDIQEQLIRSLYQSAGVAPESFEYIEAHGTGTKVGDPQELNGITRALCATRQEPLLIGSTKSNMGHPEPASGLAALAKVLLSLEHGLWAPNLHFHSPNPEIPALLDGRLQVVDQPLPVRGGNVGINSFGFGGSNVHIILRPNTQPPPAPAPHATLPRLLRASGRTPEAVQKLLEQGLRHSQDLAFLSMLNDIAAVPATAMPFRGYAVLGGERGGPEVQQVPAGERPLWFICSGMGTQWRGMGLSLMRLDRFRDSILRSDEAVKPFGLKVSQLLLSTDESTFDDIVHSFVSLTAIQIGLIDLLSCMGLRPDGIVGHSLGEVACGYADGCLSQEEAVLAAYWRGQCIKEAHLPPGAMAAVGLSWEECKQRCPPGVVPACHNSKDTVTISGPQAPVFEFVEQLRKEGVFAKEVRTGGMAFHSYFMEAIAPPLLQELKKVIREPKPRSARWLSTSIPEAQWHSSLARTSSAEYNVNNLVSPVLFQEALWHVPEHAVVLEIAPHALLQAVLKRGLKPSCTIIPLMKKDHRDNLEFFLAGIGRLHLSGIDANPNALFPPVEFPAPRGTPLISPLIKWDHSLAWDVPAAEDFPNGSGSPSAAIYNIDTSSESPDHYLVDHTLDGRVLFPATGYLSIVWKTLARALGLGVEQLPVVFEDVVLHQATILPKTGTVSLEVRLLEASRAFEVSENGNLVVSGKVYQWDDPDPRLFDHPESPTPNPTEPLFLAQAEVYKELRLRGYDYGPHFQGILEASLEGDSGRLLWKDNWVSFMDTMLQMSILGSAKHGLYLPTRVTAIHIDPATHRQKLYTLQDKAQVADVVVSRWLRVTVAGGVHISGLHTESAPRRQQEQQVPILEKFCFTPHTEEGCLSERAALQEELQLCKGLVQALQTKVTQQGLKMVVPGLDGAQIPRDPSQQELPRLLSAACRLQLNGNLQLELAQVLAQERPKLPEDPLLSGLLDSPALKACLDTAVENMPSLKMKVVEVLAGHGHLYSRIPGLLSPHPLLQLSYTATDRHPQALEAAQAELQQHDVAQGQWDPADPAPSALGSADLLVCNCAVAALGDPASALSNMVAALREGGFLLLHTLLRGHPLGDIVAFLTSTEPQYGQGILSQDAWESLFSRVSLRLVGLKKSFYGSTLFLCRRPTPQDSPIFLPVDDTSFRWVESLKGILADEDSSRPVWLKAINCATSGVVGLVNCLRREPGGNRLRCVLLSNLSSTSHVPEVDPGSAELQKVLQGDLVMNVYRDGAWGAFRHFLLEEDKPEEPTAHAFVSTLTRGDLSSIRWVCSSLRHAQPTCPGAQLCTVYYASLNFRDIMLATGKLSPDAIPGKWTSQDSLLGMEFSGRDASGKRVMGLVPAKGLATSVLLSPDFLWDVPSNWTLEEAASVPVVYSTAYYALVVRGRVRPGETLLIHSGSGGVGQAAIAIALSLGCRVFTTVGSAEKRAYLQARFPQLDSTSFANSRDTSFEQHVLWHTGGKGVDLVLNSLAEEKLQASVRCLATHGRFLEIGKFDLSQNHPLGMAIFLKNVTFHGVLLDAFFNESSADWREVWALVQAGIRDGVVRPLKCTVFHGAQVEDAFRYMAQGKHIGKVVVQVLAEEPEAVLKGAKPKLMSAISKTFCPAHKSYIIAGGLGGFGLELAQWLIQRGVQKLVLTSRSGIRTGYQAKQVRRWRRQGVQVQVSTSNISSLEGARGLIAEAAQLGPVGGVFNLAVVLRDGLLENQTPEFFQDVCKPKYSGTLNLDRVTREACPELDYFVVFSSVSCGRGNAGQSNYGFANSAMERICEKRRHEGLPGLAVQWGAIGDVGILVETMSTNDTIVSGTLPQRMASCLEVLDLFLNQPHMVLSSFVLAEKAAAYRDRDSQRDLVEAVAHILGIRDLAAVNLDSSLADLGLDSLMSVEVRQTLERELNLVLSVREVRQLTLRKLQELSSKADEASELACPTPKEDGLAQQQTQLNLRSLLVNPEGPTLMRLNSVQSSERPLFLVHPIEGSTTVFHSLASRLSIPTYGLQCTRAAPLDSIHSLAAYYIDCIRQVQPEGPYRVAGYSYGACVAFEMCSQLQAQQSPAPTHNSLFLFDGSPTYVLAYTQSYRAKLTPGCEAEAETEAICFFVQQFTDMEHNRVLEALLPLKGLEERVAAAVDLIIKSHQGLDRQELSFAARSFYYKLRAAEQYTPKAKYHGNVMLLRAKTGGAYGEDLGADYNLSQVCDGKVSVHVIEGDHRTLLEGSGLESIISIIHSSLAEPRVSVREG

[15] = tested on: Streptococcus sp. 'group A'; test: Streptococcus pyogenes SK(-)GAS viability under kanamycin – luminescence, BacTiterGlo, confirmation, counter-screen for streptokinase expression inhibitor project, dose response (AID 1900); format: functional, organism-based
[16] = reduction of Shn3 3'UTR-driven luciferase in osteoblasts – cell-based, Clone20 osteoblasts, firefly luciferase, cherry-picked, dose response (AID 624132); format: functional;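 note: firefly luciferase luminescence from reporter carrying the Shn3 3'UTR in osteoblasts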
[17] = tested on: Streptococcus; test: GAS UMAA2166 growth inhibition – luminescence, BacTiterGlo, counter-screen for streptokinase expression inhibitor project, dose response (AID 1915); format: functional, organism-based;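 note: potency for reduction of bacterial viability or growth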
[18] = target: T3, Fatty acid synthase; test: inhibition of human FAS-TE enzyme activity – biochemical, endpoint fluorescence intensity, uHTS hits, dose response (AID 624327); format: functional;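 note: fluorescence from hydrolysis of an O-methyl fluorescein acyl ester substrate by the enzyme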
[19] = general cell-killing toxicity readout – plate reader, dry powder samples, cytotoxicity control for PAX8 inhibitor project, dose response (AID 743021); format: functional, cell-based
[20] = loss of viability in HepG2 cells – cell-based, CellTiter-Glo, cherry-picked, cytotoxicity control for Shn3 inhibitor project, dose response (AID 624134); format: functional
[21] = target: Paired box protein Pax-8 (Homo sapiens, UniProt Q06710); test: PAX8 transcriptional activity inhibition in RMG-I – RMG-I cells, luciferase, cherry-pick, dose response (AID 687027); format: functional, cell-based;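 note: luciferase reporter driven by Pax8 target thyroperoxidase promoter measured by SteadyGlo luminescence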
Sequence of Paired box protein Pax-8 (Q06710 whole entry): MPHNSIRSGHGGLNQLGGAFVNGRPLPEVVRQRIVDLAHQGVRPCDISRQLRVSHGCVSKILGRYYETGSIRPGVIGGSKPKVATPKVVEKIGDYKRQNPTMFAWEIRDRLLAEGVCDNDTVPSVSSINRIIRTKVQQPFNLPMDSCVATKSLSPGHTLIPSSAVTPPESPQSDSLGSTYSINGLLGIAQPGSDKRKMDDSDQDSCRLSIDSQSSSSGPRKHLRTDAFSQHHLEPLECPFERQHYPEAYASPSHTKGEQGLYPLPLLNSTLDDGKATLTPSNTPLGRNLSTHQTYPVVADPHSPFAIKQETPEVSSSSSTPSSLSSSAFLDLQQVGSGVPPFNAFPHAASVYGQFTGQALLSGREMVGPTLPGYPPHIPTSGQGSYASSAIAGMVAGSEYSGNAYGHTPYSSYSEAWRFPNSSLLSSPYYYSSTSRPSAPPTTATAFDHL

[22] = target: T4, Streptokinase A (Streptococcus pyogenes serotype M1, UniProt P10520); test: viability-normalized secreted streptokinase activity reduction – plasminogen activation absorbance, OD405, dose response (AID 1914); format: functional, Streptococcus pyogenes M1 GAS;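 note: secreted streptokinase activity via plasminogen activation per viability signal from cell pellet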
T4 sequence (P10520 whole entry): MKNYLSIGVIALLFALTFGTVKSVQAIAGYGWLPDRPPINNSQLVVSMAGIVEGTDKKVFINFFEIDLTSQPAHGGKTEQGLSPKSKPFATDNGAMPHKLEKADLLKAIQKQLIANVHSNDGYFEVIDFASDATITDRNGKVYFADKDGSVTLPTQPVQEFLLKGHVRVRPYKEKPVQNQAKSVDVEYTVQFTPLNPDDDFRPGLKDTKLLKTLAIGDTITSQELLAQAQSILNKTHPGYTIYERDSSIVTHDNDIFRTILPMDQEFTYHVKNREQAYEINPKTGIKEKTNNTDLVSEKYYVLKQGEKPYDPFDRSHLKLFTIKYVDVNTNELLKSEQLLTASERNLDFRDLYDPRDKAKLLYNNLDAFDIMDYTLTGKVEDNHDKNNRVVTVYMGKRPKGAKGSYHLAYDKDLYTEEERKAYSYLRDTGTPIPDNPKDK

Sequence of Albumin (P02769 whole entry): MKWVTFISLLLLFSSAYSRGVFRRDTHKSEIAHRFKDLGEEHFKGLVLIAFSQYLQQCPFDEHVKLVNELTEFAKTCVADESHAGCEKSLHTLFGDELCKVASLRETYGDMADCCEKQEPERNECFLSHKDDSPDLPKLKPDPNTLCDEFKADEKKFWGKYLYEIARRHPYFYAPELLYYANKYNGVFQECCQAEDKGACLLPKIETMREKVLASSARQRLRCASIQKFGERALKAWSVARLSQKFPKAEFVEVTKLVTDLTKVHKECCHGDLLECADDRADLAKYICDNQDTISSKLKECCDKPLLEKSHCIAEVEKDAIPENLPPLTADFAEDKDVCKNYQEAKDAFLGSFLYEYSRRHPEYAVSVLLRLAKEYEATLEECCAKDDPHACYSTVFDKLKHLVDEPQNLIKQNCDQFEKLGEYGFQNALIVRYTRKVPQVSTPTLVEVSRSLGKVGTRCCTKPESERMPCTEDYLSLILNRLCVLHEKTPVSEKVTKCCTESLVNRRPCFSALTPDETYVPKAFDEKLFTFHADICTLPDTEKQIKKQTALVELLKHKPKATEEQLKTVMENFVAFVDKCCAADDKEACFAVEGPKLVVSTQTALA

Q: For `CC(C)C(=O)Nc1ccc(C(=O)NNC(=S)NC(=O)c2ccccc2[N+](=O)[O-])cc1`, which IC50 [1] is on record?
A: The IC50 was > 94.1 µM (inactive).

Q: Which results are given for `COc1ccc(S(=O)(=O)N(C)C[C@@H]2Oc3ncc(/C=C/c4ccccc4)cc3C(=O)N([C@@H](C)CO)C[C@H]2C)cc1`?
A: AbsAC35 [2]: 77.19 µM; AbsAC35 [3]: 47.67 µM

Q: With `O=C(O)c1ccc2c(c1)C(=O)N(c1cccc(-c3nc4ccccc4s3)c1)C2=O` as the molecule, how does the IC50 [4] read?
A: Its IC50 is 8.03 µM (active).

Q: And the IC50 [5]?
A: The IC50 was 6.02 µM (active).

Q: What about the IC50 [6] of the same molecule?
A: Its IC50 is 7.07 µM (active).

Q: What about the IC50 [7] of the same molecule?
A: The IC50 was 50 µM (inactive).

Q: What about the IC50 [8] of the same molecule?
A: The IC50 was 35.6 µM (inactive).

Q: What about the IC50 [9] of the same molecule?
A: Its IC50 is 6.24 µM (active).

Q: With `Sc1nnc(COc2ccccc2)n1-c1ccc(Cl)cc1` as the molecule, how does the IC50 [10] read?
A: The IC50 was > 122 µM (inactive).

Q: With `CCN(CC)CC(=O)N1CCCC(N2CCN(c3cccc(C(F)(F)F)c3)CC2)C1` (configuration not stated) as the molecule, how does the AC50 [11] read?
A: Its AC50 is 33.4 µM (active).

Q: Which AC50 [12] does the source give for `Cc1cccc(N=C(S)NN(Cc2ccccc2)c2ccccc2)c1C` here?
A: The AC50 was > 52 µM (inactive).

Q: Which AC50 [13] does the source give for `CCOc1ccccc1NC(=O)c1nc(S(=O)(=O)Cc2ccccc2)ncc1Cl` here?
A: The AC50 was 6.36 µM (active).

Q: What about the IC50 [14] of the same molecule?
A: The IC50 was 7.5 µM (active).

Q: And the EC50 [15]?
A: Its EC50 is 12.5 µM (active).

Q: What about the AC50 [16] of the same molecule?
A: The AC50 was 0.376 µM (active).

Q: And the EC50 [17]?
A: The EC50 was 13.7 µM (active).

Q: What about the IC50 [18] of the same molecule?
A: The IC50 was 7.85 µM (active).

Q: What about the AC50 [19] of the same molecule?
A: Its AC50 is 21.7 µM (active).

Q: And the AC50 [20]?
A: Its AC50 is 16.9 µM (active).

Q: What about the AC50 [21] of the same molecule?
A: The AC50 was 7.1 µM (active).

Q: What about the EC50 [22] of the same molecule?
A: The EC50 was 1.98 µM (active).
